Six compounds from patent publication US20090299044A1 (priority 2006, published 2009) can be followed below.

The structures appear in SMILES notation. Bridge positions count the residues as written; N and C are the ends. Square brackets hold non-standard residues; d marks the D form. Peptide text beside a SMILES is read from it. 1Nal = N[C@@H](Cc1cccc2ccccc12)C(=O)O

One assay concerns the target T1, human Kv1.3 (CHO) (Homo sapiens, UniProt P22001).
T1 construct: expressed in transfected cells; host or cells: CHO
In words: cell-based.

The target in a further assay is T2, human Kv1.1 (HEK293) (Homo sapiens, UniProt Q09470).
T2 construct: expressed in transfected cells; host or cells: HEK293
In words: cell-based.

T2 sequence (Q09470 whole entry): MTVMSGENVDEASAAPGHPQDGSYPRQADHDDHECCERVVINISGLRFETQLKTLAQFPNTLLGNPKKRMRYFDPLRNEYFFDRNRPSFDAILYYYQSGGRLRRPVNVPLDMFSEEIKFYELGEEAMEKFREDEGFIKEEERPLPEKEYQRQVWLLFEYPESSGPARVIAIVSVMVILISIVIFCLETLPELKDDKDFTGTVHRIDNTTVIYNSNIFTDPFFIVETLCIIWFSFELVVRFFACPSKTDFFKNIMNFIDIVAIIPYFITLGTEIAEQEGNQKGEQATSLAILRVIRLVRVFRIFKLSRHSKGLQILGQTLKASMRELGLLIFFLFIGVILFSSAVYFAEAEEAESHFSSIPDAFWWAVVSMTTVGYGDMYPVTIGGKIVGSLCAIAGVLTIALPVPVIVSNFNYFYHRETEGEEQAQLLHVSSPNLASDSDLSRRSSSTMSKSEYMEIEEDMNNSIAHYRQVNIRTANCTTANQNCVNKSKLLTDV
T1 sequence (P22001 whole entry): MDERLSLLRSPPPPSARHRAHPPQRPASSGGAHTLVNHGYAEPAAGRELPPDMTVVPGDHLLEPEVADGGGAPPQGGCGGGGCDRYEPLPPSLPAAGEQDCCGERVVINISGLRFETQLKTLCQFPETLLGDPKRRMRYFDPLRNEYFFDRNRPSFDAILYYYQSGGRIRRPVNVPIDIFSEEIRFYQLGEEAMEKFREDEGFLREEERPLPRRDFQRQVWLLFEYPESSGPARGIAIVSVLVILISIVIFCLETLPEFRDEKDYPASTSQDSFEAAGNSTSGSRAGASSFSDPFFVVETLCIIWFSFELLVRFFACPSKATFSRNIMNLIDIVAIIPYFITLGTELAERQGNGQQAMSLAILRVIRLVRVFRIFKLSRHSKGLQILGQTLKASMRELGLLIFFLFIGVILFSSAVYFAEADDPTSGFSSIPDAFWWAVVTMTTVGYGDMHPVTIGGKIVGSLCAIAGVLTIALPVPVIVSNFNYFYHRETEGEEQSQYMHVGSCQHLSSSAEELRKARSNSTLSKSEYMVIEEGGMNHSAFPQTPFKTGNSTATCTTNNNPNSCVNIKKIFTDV

`CC[C@H](C)[C@@H]1NC(=O)[C@H](CCCCN)NC(=O)[C@@H](NC(=O)[C@H](CCCCN)NC(=O)[C@@H](NC(=O)[C@H](CC(N)=O)NC(=O)[C@@H](NC(=O)[C@@H](NC(=O)[C@@H](NC(=O)CN)C(C)C)[C@@H](C)CC)[C@@H](C)CC)C(C)C)CSSC[C@@H]2NC(=O)[C@H](CCCCN)NC(=O)CNC(=O)[C@H](Cc3ccccc3)NC(=O)[C@H](CCCNC(=N)N)NC(=O)[C@H](CCSC)NC(=O)CNC(=O)[C@H](C)NC(=O)[C@H](CCCCN)NC(=O)[C@H](CCCCN)NC(=O)[C@@H]3CSSC[C@@H](C(=O)N[C@H](C(=O)N4CCC[C@H]4C(=O)N[C@@H](CCCCN)C(=O)O)[C@@H](C)O)NC(=O)[C@H](Cc4c[nH]cn4)NC(=O)[C@H](CSSC[C@H](NC(=O)[C@H](CCC(N)=O)NC(=O)[C@H](CCCNC(=N)N)NC(=O)[C@H](CO)NC1=O)C(=O)N[C@@H](CC(C)C)C(=O)N[C@@H](CCC(=O)O)C(=O)N1CCC[C@H]1C(=O)N3)NC(=O)[C@H](CCCCN)NC(=O)CNC(=O)[C@H](CC(N)=O)NC(=O)[C@H](CCC(=O)O)NC2=O` [M29E] (H-GVIINVKCKISRQCLEPCKKAGMRFGKCENGKCHCTPK-OH; disulfide 8-28, 14-33, 18-35): the IC50 against human Kv1.3 (CHO) and on human Kv1.1 (HEK293) was above 3.33 nM each time.

For the compound `CC[C@H](C)[C@@H]1NC(=O)[C@H](CCCCN)NC(=O)[C@@H](NC(=O)[C@H](CCCCN)NC(=O)[C@@H](NC(=O)[C@H](C)NC(=O)[C@@H](NC(=O)[C@@H](NC(=O)[C@@H](NC(=O)CN)C(C)C)[C@@H](C)CC)[C@@H](C)CC)C(C)C)CSSC[C@@H]2NC(=O)[C@H](CCCCN)NC(=O)CNC(=O)[C@H](Cc3ccccc3)NC(=O)[C@H](CCCNC(=N)N)NC(=O)[C@H](CCSC)NC(=O)CNC(=O)[C@H](C)NC(=O)[C@H](CCCCN)NC(=O)[C@H](CCCCN)NC(=O)[C@@H]3CSSC[C@@H](C(=O)N[C@H](C(=O)N4CCC[C@H]4C(=O)N[C@@H](CCCCN)C(=O)O)[C@@H](C)O)NC(=O)[C@H](Cc4c[nH]cn4)NC(=O)[C@H](CSSC[C@H](NC(=O)[C@H](CCC(N)=O)NC(=O)[C@H](CCCNC(=N)N)NC(=O)[C@H](CO)NC1=O)C(=O)N[C@@H](CC(C)C)C(=O)N[C@@H](CCC(=O)O)C(=O)N1CCC[C@H]1C(=O)N3)NC(=O)[C@H](CCCCN)NC(=O)CNC(=O)[C@H](CC(N)=O)NC(=O)[C@H](CCSC)NC2=O` [N5A] (H-GVIIAVKCKISRQCLEPCKKAGMRFGKCMNGKCHCTPK-OH; disulfide 8-28, 14-33, 18-35), the IC50 against human Kv1.3 (CHO) was 0.16 nM; at human Kv1.1 (HEK293) it was 0.014 nM.

For `CC[C@H](C)[C@@H]1NC(=O)[C@H](CCCCN)NC(=O)[C@@H](NC(=O)[C@H](CCCCN)NC(=O)[C@@H](NC(=O)[C@H](CCC(=O)O)NC(=O)[C@@H](NC(=O)[C@@H](NC(=O)[C@@H](NC(=O)CN)C(C)C)[C@@H](C)CC)[C@@H](C)CC)C(C)C)CSSC[C@@H]2NC(=O)[C@H](CCCCN)NC(=O)CNC(=O)[C@H](Cc3ccccc3)NC(=O)[C@H](CCCNC(=N)N)NC(=O)[C@H](CCSC)NC(=O)CNC(=O)[C@H](C)NC(=O)[C@H](CCCCN)NC(=O)[C@H](CCCCN)NC(=O)[C@@H]3CSSC[C@@H](C(=O)N[C@H](C(=O)N4CCC[C@H]4C(=O)N[C@@H](CCCCN)C(=O)O)[C@@H](C)O)NC(=O)[C@H](Cc4c[nH]cn4)NC(=O)[C@H](CSSC[C@H](NC(=O)[C@H](CCC(N)=O)NC(=O)[C@H](CCCNC(=N)N)NC(=O)[C@H](CO)NC1=O)C(=O)N[C@@H](CC(C)C)C(=O)N[C@@H](CCC(=O)O)C(=O)N1CCC[C@H]1C(=O)N3)NC(=O)[C@H](CCCCN)NC(=O)CNC(=O)[C@H](CC(N)=O)NC(=O)[C@H](CCSC)NC2=O` [N5E] (H-GVIIEVKCKISRQCLEPCKKAGMRFGKCMNGKCHCTPK-OH; disulfide 8-28, 14-33, 18-35), the IC50 against human Kv1.3 (CHO) came to 0.0234 nM; against human Kv1.1 (HEK293) it was 0.00444 nM.

With `CC[C@H](C)[C@@H]1NC(=O)[C@H](CCCCN)NC(=O)[C@@H](NC(=O)[C@H](CCCCN)NC(=O)[C@@H](NC(=O)[C@H](Cc2cccc3ccccc23)NC(=O)[C@@H](NC(=O)[C@@H](NC(=O)[C@@H](NC(=O)CN)C(C)C)[C@@H](C)CC)[C@@H](C)CC)C(C)C)CSSC[C@@H]2NC(=O)[C@H](CCCCN)NC(=O)CNC(=O)[C@H](Cc3ccccc3)NC(=O)[C@H](CCCNC(=N)N)NC(=O)[C@H](CCSC)NC(=O)CNC(=O)[C@H](C)NC(=O)[C@H](CCCCN)NC(=O)[C@H](CCCCN)NC(=O)[C@@H]3CSSC[C@@H](C(=O)N[C@H](C(=O)N4CCC[C@H]4C(=O)N[C@@H](CCCCN)C(=O)O)[C@@H](C)O)NC(=O)[C@H](Cc4c[nH]cn4)NC(=O)[C@H](CSSC[C@H](NC(=O)[C@H](CCC(N)=O)NC(=O)[C@H](CCCNC(=N)N)NC(=O)[C@H](CO)NC1=O)C(=O)N[C@@H](CC(C)C)C(=O)N[C@@H](CCC(=O)O)C(=O)N1CCC[C@H]1C(=O)N3)NC(=O)[C@H](CCCCN)NC(=O)CNC(=O)[C@H](CC(N)=O)NC(=O)[C@H](CCSC)NC2=O` [N5Nal] (H-GVII[1Nal]VKCKISRQCLEPCKKAGMRFGKCMNGKCHCTPK-OH; disulfide 8-28, 14-33, 18-35), the IC50 at human Kv1.3 (CHO) was 0.0218 nM; at human Kv1.1 (HEK293), below 0.00152 nM.

Consider `CC[C@H](C)[C@@H]1NC(=O)[C@H](CCCCN)NC(=O)[C@@H](NC(=O)[C@H](CCCCN)NC(=O)[C@@H](NC(=O)[C@H](CCCNC(=N)N)NC(=O)[C@@H](NC(=O)[C@@H](NC(=O)[C@@H](NC(=O)CN)C(C)C)[C@@H](C)CC)[C@@H](C)CC)C(C)C)CSSC[C@@H]2NC(=O)[C@H](CCCCN)NC(=O)CNC(=O)[C@H](Cc3ccccc3)NC(=O)[C@H](CCCNC(=N)N)NC(=O)[C@H](CCSC)NC(=O)CNC(=O)[C@H](C)NC(=O)[C@H](CCCCN)NC(=O)[C@H](CCCCN)NC(=O)[C@@H]3CSSC[C@@H](C(=O)N[C@H](C(=O)N4CCC[C@H]4C(=O)N[C@@H](CCCCN)C(=O)O)[C@@H](C)O)NC(=O)[C@H](Cc4c[nH]cn4)NC(=O)[C@H](CSSC[C@H](NC(=O)[C@H](CCC(N)=O)NC(=O)[C@H](CCCNC(=N)N)NC(=O)[C@H](CO)NC1=O)C(=O)N[C@@H](CC(C)C)C(=O)N[C@@H](CCC(=O)O)C(=O)N1CCC[C@H]1C(=O)N3)NC(=O)[C@H](CCCCN)NC(=O)CNC(=O)[C@H](CC(N)=O)NC(=O)[C@H](CCSC)NC2=O` [N5R] (H-GVIIRVKCKISRQCLEPCKKAGMRFGKCMNGKCHCTPK-OH; disulfide 8-28, 14-33, 18-35), for which the figures for the IC50 against human Kv1.3 (CHO) and against human Kv1.1 (HEK293) were 0.0136 nM and 0.00215 nM, respectively.

Take `CC[C@H](C)[C@@H]1NC(=O)[C@H](CCCCN)NC(=O)[C@@H](NC(=O)[C@H](CCCCN)NC(=O)[C@@H](NC(=O)[C@H](CC(N)=O)NC(=O)[C@@H](NC(=O)[C@@H](NC(=O)[C@@H](NC(=O)CN)C(C)C)[C@@H](C)CC)[C@@H](C)CC)C(C)C)CSSC[C@@H]2NC(=O)[C@H](CCCCN)NC(=O)CNC(=O)[C@H](Cc3ccccc3)NC(=O)[C@H](CCCNC(=N)N)NC(=O)[C@H](CCSC)NC(=O)CNC(=O)[C@H](C)NC(=O)[C@H](CCCCN)NC(=O)[C@H](CCCCN)NC(=O)[C@@H]3CSSC[C@@H](C(=O)N[C@H](C(=O)N4CCC[C@H]4C(=O)N[C@@H](CCCCN)C(=O)O)[C@@H](C)O)NC(=O)[C@H](Cc4c[nH]cn4)NC(=O)[C@H](CSSC[C@H](NC(=O)[C@H](CCC(N)=O)NC(=O)[C@H](CCCNC(=N)N)NC(=O)[C@H](CO)NC1=O)C(=O)N[C@@H](CC(C)C)C(=O)N[C@@H](CCC(=O)O)C(=O)N1CCC[C@H]1C(=O)N3)NC(=O)[C@H](CCCCN)NC(=O)CNC(=O)[C@H](CCCNC(=N)N)NC(=O)[C@H](CCSC)NC2=O` [N30R] (H-GVIINVKCKISRQCLEPCKKAGMRFGKCMRGKCHCTPK-OH; disulfide 8-28, 14-33, 18-35): the IC50 against human Kv1.3 (CHO) is 0.0189 nM; against human Kv1.1 (HEK293), 0.0457 nM.

As usually defined, the IC50 is the midpoint of a concentration-inhibition curve.
